Data on 16 compounds can be found in patent US20260132132A1, “3A,4,5,6-TETRAHYDRO-1 H-PYRAZOLO[3,4-C]PYRIDIN-7(7AH)-ONE DERIVATIVES AS FACTOR XIIA INHIBITORS” (KALVISTA PHARMACEUTICALS LIMITED, priority 2022, published 2026).

Each structure is given as a SMILES string. Some results are limits rather than exact numbers.

Experiment [1] deals with T1, Human Factor XIIa (hFXIIa) (Homo sapiens, UniProt P00748).
T1 construct: purchased Enzyme Research Laboratories
T1 sequence (P00748 373-615 limits assumed): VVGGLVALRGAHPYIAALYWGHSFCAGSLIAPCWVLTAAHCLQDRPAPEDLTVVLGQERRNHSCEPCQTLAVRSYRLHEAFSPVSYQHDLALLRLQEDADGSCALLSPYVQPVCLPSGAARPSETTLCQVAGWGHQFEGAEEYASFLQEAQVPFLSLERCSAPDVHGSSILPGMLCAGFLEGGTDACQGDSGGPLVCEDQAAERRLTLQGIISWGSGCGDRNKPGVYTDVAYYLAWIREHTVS
T1 sequence (P00748 20-372 partner limits assumed): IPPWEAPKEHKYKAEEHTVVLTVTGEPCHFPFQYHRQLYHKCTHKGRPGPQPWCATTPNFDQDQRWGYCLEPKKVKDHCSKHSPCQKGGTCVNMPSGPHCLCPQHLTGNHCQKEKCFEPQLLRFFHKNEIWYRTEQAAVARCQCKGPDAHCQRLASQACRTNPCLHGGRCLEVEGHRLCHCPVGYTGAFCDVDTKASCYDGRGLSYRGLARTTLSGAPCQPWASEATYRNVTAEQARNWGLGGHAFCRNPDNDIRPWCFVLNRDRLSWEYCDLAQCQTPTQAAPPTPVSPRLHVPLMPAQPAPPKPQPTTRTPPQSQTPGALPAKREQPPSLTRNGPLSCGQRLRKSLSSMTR
The experiment in a line: Determination of Human Factor XIIa (hFXIIa) inhibition, fluorogenic substrate IC50 assay. The experiment is classed as biochemical. To be noted: fluorogenic substrate H-DPro-Phe-Arg-AFC at Km, 25° C., read-out: Human FXIIa IC50. As for the experimental part: Determination of Human Factor XIIa (hFXIIa) inhibition
The Km for the cleavage of the substrate by hFXIIa was determined by standard transformation of the Michaelis-Menten equation, with subsequent inhibition assays performed at substrate Km concentration.

For another experiment, the target named is FXa (Homo sapiens, UniProt P00742). The experiment in a line: Related protease inhibition: FXa, fluorogenic substrate. To be noted: fluorogenic substrate at Km, 25° C.; H1-H3 = % activity at 40 μM. The experiment is classed as biochemical. As for the experimental part:
Human serine protease enzyme Plasma Kallikrein, KLK1, FXa, Plasmin, Thrombin and Trypsin were assayed for enzymatic activity using an appropriate fluorogenic substrate at Km concentration, FXIa at fixed substrate concentration of 100 μM and various concentrations of the test compound.

FXa, sequence (P00742 235-488 limits assumed): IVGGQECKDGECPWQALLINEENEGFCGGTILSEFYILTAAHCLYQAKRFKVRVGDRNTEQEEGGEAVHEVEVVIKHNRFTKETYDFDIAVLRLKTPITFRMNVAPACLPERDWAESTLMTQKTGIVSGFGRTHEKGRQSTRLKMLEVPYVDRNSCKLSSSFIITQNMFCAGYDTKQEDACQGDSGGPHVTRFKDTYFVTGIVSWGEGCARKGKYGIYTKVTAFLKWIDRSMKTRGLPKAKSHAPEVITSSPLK
FXa, sequence (P00742 41-179 partner limits assumed): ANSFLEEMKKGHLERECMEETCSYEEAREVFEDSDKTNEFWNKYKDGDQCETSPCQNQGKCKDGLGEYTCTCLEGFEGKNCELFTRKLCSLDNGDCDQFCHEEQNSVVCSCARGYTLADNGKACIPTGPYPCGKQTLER

Regarding `O=C(NCC1CC1)c1nn(-c2cccc(Cl)c2)c2c1CCN(c1ccc3c(c1)C(=O)N(CCO)CC3)C2=O` [Example 1216, 1-(3-chlorophenyl)-N-(cyclopropylmethyl)-6-(2-(2-hydroxyethyl)-1-oxo-1,2,3,4-tetrahydroisoquinolin-7-yl)-7-oxo-4,5,6,7-tetrahydro-1H-pyrazolo[3,4-c]pyridine-3-carboxamide], the IC50 (commonly the concentration that gives 50% inhibition) is 0.1 to 0.3 µM in experiment [1] and greater than 40 µM on FXa.

Consider `Cc1ccncc1CNC(=O)c1nn(-c2cccc(Cl)c2)c2c(=O)n(-c3ccc4c(c3)C(=O)N(CCO)CC4)c(C)nc12` [Example 3017, 1-(3-chlorophenyl)-6-(2-(2-hydroxyethyl)-1-oxo-1,2,3,4-tetrahydroisoquinolin-7-yl)-5-methyl-N-((4-methylpyridin-3-yl)methyl)-7-oxo-6,7-dihydro-1H-pyrazolo[4,3-d]pyrimidine-3-carboxamide], for which the values for the IC50 (in experiment [1]; against FXa) were 0.01 to 0.1 µM and 10 to 40 µM, respectively.

In the case of `CCNC(=O)c1nn(-c2cncc(C)c2)c2c1CCN(c1ccc3c(c1)C(=O)N(C)CC3)C2=O` [Example 2027, N-ethyl-6-(2-methyl-1-oxo-1,2,3,4-tetrahydroisoquinolin-7-yl)-1-(5-methylpyridin-3-yl)-7-oxo-4,5,6,7-tetrahydro-1H-pyrazolo[3,4-c]pyridine-3-carboxamide], the IC50 in experiment [1] was 3 to 10 µM; against FXa, greater than 40 µM.

Regarding `CN1CCc2ccc(N3CCc4c(C(=O)NC5CCOC5(C)C)nn(-c5cccc(Cl)c5)c4C3=O)cc2C1=O` (centres unmarked) [Example 1197, 1-(3-chlorophenyl)-N-(2,2-dimethyltetrahydrofuran-3-yl)-6-(2-methyl-1-oxo-1,2,3,4-tetrahydroisoquinolin-7-yl)-7-oxo-4,5,6,7-tetrahydro-1H-pyrazolo[3,4-c]pyridine-3-carboxamide], the IC50 is 0.3 to 1 µM in experiment [1] and greater than 40 µM against FXa.

Regarding `CCNC(=O)c1nn(-c2cccc(Cl)c2)c2c1CCN(c1cccc(N3CCCOC3=O)c1)C2=O` [Example 1363, 1-(3-chlorophenyl)-N-ethyl-7-oxo-6-(3-(2-oxo-1,3-oxazinan-3-yl)phenyl)-4,5,6,7-tetrahydro-1H-pyrazolo[3,4-c]pyridine-3-carboxamide], the 50% inhibitory concentration (IC50) in experiment [1] is 3 to 10 µM; against FXa it was greater than 40 µM.

Turning to `CCCN1CCc2ccc(N3CCc4c(C(=O)NCc5cc(C)n(C)n5)nn(-c5cccc(Cl)c5)c4C3=O)cc2C1=O` [Example 1210, 1-(3-chlorophenyl)-N-((1,5-dimethyl-1H-pyrazol-3-yl)methyl)-7-oxo-6-(1-oxo-2-propyl-1,2,3,4-tetrahydroisoquinolin-7-yl)-4,5,6,7-tetrahydro-1H-pyrazolo[3,4-c]pyridine-3-carboxamide], the IC50 was 0.1 to 0.3 µM in experiment [1] and greater than 40 µM at FXa.

For the compound `CCOC(=O)c1nn(-c2cccc(Cl)c2)c2c(=O)n(-c3ccc4c(c3)C(=O)N(CCO)CC4)c(C)nc12` [Example 3019, ethyl 1-(3-chlorophenyl)-6-(2-(2-hydroxyethyl)-1-oxo-1,2,3,4-tetrahydroisoquinolin-7-yl)-5-methyl-7-oxo-6,7-dihydro-1H-pyrazolo[4,3-d]pyrimidine-3-carboxylate], the IC50 in experiment [1] was in the range of 0.1 to 0.3 µM; on FXa, 3 to 10 µM.

`Cc1cc(CNC(=O)c2nn(-c3cccc(Cl)c3)c3c2CCN(c2ccc4c(c2)C(=O)N(CCO)[C@@H](C)CO4)C3=O)n[nH]1` [Example 1380, (S)-1-(3-chlorophenyl)-6-(4-(2-hydroxyethyl)-3-methyl-5-oxo-2,3,4,5-tetrahydrobenzo[f][1,4]oxazepin-7-yl)-N-((5-methyl-1H-pyrazol-3-yl)methyl)-7-oxo-4,5,6,7-tetrahydro-1H-pyrazolo[3,4-c]pyridine-3-carboxamide]: the results for the half-maximal inhibitory concentration (IC50) (in experiment [1]; on FXa) were 0.3 to 1 µM and 10 to 40 µM, respectively.

Consider `O=C(NCc1cccnn1)c1nn(-c2cccc(Cl)c2)c2c1CCN(c1ccc3c(c1)CN(CCO)CC3)C2=O` [Example 1204, 1-(3-chlorophenyl)-6-(2-(2-hydroxyethyl)-1,2,3,4-tetrahydroisoquinolin-7-yl)-7-oxo-N-(pyridazin-3-ylmethyl)-4,5,6,7-tetrahydro-1H-pyrazolo[3,4-c]pyridine-3-carboxamide], for which the IC50 in experiment [1] is 0.1 to 0.3 µM; on FXa it was greater than 40 µM.

Take `CC1(C)OCCC1NC(=O)c1nn(-c2cccc(Cl)c2)c2c1CCN(c1ccc3c(c1)CN(CCO)CC3)C2=O` (centres unmarked) [Example 1112, 1-(3-chlorophenyl)-N-(2,2-dimethyltetrahydrofuran-3-yl)-6-(2-(2-hydroxyethyl)-1,2,3,4-tetrahydroisoquinolin-7-yl)-7-oxo-4,5,6,7-tetrahydro-1H-pyrazolo[3,4-c]pyridine-3-carboxamide]: the half-maximal inhibitory concentration (IC50) in experiment [1] is 0.1 to 0.3 µM; against FXa, greater than 40 µM.

On to `CCNC(=O)c1nn(-c2cc(C)ccn2)c2c1CCN(c1ccc3c(c1)C(=O)N(C)CC3)C2=O` [Example 2035, N-ethyl-6-(2-methyl-1-oxo-1,2,3,4-tetrahydroisoquinolin-7-yl)-1-(4-methylpyridin-2-yl)-7-oxo-4,5,6,7-tetrahydro-1H-pyrazolo[3,4-c]pyridine-3-carboxamide], for which the IC50 was in the range of 3 to 10 µM in experiment [1] and 10 to 40 µM against FXa.

As for `CN1CCc2ccc(N3CCc4c(C(=O)N5CCC5)nn(-c5cccc(Cl)c5)c4C3=O)cc2C1=O` [Example 1335, 7-(3-(azetidine-1-carbonyl)-1-(3-chlorophenyl)-7-oxo-1,4,5,7-tetrahydro-6H-pyrazolo[3,4-c]pyridin-6-yl)-2-methyl-3,4-dihydroisoquinolin-1(2H)-one], the IC50 in experiment [1] was 1 to 3 µM; against FXa, greater than 40 µM.

Turning to `CCNC(=O)c1nn(-c2cccc(Cl)c2)c2c1CCN(c1cccc(N3CCN(C)C3=O)c1)C2=O` [Example 1364, 1-(3-chlorophenyl)-N-ethyl-6-(3-(3-methyl-2-oxoimidazolidin-1-yl)phenyl)-7-oxo-4,5,6,7-tetrahydro-1H-pyrazolo[3,4-c]pyridine-3-carboxamide], the concentration for half-maximal inhibition (IC50) in experiment [1] is 1 to 3 µM; against FXa it was greater than 40 µM.

As to `CN1CCCc2ccc(N3CCc4c(C(=O)NCC5CC5)nn(-c5cccc(Cl)c5)c4C3=O)cc2C1=O` [Example 1239, 1-(3-chlorophenyl)-N-(cyclopropylmethyl)-6-(2-methyl-1-oxo-2,3,4,5-tetrahydro-1H-benzo[c]azepin-8-yl)-7-oxo-4,5,6,7-tetrahydro-1H-pyrazolo[3,4-c]pyridine-3-carboxamide], the IC50 lay in the range of 0.1 to 0.3 µM in experiment [1] and 10 to 40 µM against FXa.

As for `CCN1CCOc2ccc(N3CCc4c(C(=O)NCc5cc(C)n(C)n5)nn(-c5cccc(Cl)c5)c4C3=O)cc2C1=O` [Example 1317, 1-(3-chlorophenyl)-N-((1,5-dimethyl-1H-pyrazol-3-yl)methyl)-6-(4-ethyl-5-oxo-2,3,4,5-tetrahydrobenzo[f][1,4]oxazepin-7-yl)-7-oxo-4,5,6,7-tetrahydro-1H-pyrazolo[3,4-c]pyridine-3-carboxamide], the values for the IC50 (in experiment [1]; at FXa) were 0.01 to 0.1 µM and 3 to 10 µM, respectively.

In the case of `Cc1ccncc1CNC(=O)c1nn(-c2cccc(Cl)c2)c2c1CCN(c1ccc3ccn(C)c(=O)c3c1)C2=O` [Example 1212, 1-(3-chlorophenyl)-6-(2-methyl-1-oxo-1,2-dihydroisoquinolin-7-yl)-N-((4-methylpyridin-3-yl)methyl)-7-oxo-4,5,6,7-tetrahydro-1H-pyrazolo[3,4-c]pyridine-3-carboxamide], the IC50 in experiment [1] was 1 to 3 µM; against FXa it was greater than 40 µM.
